Data on 43 compounds can be found in BindingDB's records for doi:10.7270/Q2TX3CSC (Vanderbilt Screening Center for GPCRs, Ion Channels and …, 2009).

Molecules are shown by their SMILES.

The target of the first assay is T1, Solute carrier family 12 member 5 (Homo sapiens, UniProt Q9H2X9).
T1 sequence (Q9H2X9 whole entry): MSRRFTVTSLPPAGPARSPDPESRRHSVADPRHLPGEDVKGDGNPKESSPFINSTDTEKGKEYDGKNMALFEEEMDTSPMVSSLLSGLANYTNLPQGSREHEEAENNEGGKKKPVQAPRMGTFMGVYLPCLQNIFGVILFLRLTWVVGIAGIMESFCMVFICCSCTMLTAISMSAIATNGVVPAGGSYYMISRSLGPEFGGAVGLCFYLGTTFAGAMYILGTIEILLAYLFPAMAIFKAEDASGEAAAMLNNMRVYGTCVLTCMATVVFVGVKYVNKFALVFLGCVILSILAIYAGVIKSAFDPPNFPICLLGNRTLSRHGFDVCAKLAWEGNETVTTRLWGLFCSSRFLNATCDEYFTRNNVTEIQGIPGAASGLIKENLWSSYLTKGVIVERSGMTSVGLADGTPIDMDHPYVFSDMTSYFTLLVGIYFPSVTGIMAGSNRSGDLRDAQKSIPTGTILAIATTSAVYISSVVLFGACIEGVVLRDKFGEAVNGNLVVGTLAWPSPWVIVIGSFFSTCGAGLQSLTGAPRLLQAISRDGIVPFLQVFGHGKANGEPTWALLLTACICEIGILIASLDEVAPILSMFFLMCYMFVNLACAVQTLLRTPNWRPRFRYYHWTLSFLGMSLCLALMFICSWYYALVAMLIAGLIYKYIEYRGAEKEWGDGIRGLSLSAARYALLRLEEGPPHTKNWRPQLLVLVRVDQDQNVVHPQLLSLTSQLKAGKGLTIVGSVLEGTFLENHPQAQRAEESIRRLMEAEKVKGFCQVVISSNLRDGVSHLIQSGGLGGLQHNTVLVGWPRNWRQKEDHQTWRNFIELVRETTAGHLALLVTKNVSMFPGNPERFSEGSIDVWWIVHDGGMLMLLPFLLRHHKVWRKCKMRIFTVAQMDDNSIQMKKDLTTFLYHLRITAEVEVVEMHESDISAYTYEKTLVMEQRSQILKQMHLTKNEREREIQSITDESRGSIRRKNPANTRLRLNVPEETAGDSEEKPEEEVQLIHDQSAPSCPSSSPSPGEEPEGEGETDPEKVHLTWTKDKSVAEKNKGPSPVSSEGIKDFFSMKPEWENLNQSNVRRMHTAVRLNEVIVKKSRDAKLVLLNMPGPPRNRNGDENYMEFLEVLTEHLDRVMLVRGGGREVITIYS
Description: concentration-response of KCC2 transport modulators – cell-based, HEK293 KCC2, FluoZin-2 fluorescence, dose response (AID 1736).
Details: not given
In general, EC50 refers to the concentration that produces a half-maximal response. Low readings indicate a more potent agent, high ones a less potent agent. Compound `COC(=O)c1sccc1NC(=S)OC` [3-(methoxycarbothioylamino)thiophene-2-carboxylic acid methyl ester] came in with an EC50 of 1.78 µM.
On the same count and under the same terms, the same measure for `O=C(NC(=S)Nc1nc(-c2cccc([N+](=O)[O-])c2)cs1)c1cc(Cl)ccc1Cl` [2,5-bis(chloranyl)-N-[[4-(3-nitrophenyl)-1,3-thiazol-2-yl]carbamothioyl]benzamide]: 16.2 µM.
The compound `O=C(CSc1ccc(-c2cccs2)nn1)Nc1ccccc1F` [MLS000621184] showed an EC50 of 5.12 µM.
On the same count and under the same terms, the same measure for `S=C(NCc1ccccc1Cl)Nc1ccccc1Cl` [1-(2-chlorobenzyl)-3-(2-chlorophenyl)thiourea]: 204 µM.
The same measure, in the same setting: then `CCc1ccc(C(=O)COC(=O)c2cc([N+](=O)[O-])ccc2NCCO)cc1` [2-(2-hydroxyethylamino)-5-nitro-benzoic acid [2-(4-ethylphenyl)-2-keto-ethyl] ester], with 17.2 µM; and `CCN(CC)c1ccc2c(C)c(-c3ccc(N)cc3)c(=O)oc2c1` [3-(4-aminophenyl)-7-(diethylamino)-4-methyl-1-benzopyran-2-one], with 0.986 µM; and `CCc1cc(C(=O)N2CCCC(CNC(=O)c3ccc(-c4ccccc4)cc3)C2)no1` (stereo not drawn) [MLS000731765], with 3.2 µM.
Compound `Cc1ccc(/C=C2/Sc3ccccc3N(CC(=O)NCCCOC(C)C)C2=O)cc1` [2-[(2E)-2-[(4-methylphenyl)methylidene]-3-oxidanylidene-1,4-benzothiazin-4-yl]-N-(3-propan-2-yloxypropyl)ethanamide] registered an EC50 of 964 µM.
The same measure, in the same setting: then `O=S(=O)(NCCc1ccccc1F)c1cccc(S(=O)(=O)N2CCOCC2)c1` [MLS000076090], with 1.65 µM.
The same measure, in the same setting: then `O=C(NCc1nc(-c2ccccc2)cs1)c1ccccc1` [MLS000661971], with 6.49 µM.
Regarding `COc1ccccc1-n1cnc2cc(NS(=O)(=O)c3ccccc3)ccc21` [MLS000032522], the EC50 stood at 1.9 µM.
As to `Cc1ccc(-c2n[nH]c(=S)n2NC=CCc2ccccc2[N+](=O)[O-])cc1`, the EC50 came out at 1.62 µM.
On the same count and under the same terms, the same measure for `CC1Cc2ccccc2N1C(=O)c1ccc(N2CCCCC2)c([N+](=O)[O-])c1` (stereo not drawn) [(2-methyl-2,3-dihydroindol-1-yl)-(3-nitro-4-piperidin-1-yl-phenyl)methanone]: 0.92 µM; for `Cc1ccc2[nH]c(=O)c(CN(CCc3ccccc3)Cc3nnnn3CC3CCCO3)cc2c1` (stereo not drawn) [SMR000003177]: 4.26 µM.
Same read-out and setting: then `O=C(CNC(=O)/C(=C\c1ccc(Br)cc1)NC(=O)c1ccccc1)OCc1ccccc1` [(phenylmethyl) 2-[[(E)-2-benzamido-3-(4-bromophenyl)prop-2-enoyl]amino]ethanoate], with 0.993 µM.
`COc1ccc(-c2cc(CNC(=O)CN(C)Cc3ccccc3)on2)cc1` [2-[benzyl(methyl)amino]-N-[[3-(4-methoxyphenyl)-1,2-oxazol-5-yl]methyl]acetamide] had an EC50 of 5.23 µM.
Same read-out and setting: the same measure for `O=C(CC(C(=O)N1CCc2ccccc21)n1ccnc1)N1CCc2ccccc2C1` (stereo not drawn) [1-(2,3-dihydroindol-1-yl)-4-(3,4-dihydro-1H-isoquinolin-2-yl)-2-(1-imidazolyl)butane-1,4-dione]: 1770 µM.
Same read-out and setting: the same measure for `Fc1cccc(F)c1C=NNC(=S)Nc1cccnc1` [1-[(2,6-difluorobenzylidene)amino]-3-(3-pyridyl)thiourea]: 6.93 µM; for `Oc1ccccc1CN=Nc1nc2ccccc2o1` [(6E)-6-[(1,3-benzoxazol-2-ylhydrazo)methylidene]-1-cyclohexa-2,4-dienone]: 98.9 µM.
The same measure, in the same setting: the same measure for `Cc1c(C(=O)NCCSCc2ccc(F)cc2)cnn1-c1ccc(Cl)cc1` [1-(4-chlorophenyl)-N-[2-[(4-fluorobenzyl)thio]ethyl]-5-methyl-pyrazole-4-carboxamide]: 6.18 µM; for `O=C(c1cc2c(s1)-c1ccccc1OC2)N1CCC2(CC1)OCCO2` [1,4-dioxa-8-azaspiro[4.5]decan-8-yl(4H-thieno[3,2-c][1]benzopyran-2-yl)methanone]: 24.9 µM; for `S=C(NCc1cccnc1)Nc1ccc(Oc2ccccc2)cc1` [1-(4-phenoxyphenyl)-3-(3-pyridinylmethyl)thiourea]: 8.45 µM.
`NC(=O)COc1ccccc1/C=C1/SC(=O)N(CC(=O)N2CCc3ccccc3C2)C1=O` [2-[2-({3-[2-(3,4-dihydro-2(1H)-isoquinolinyl)-2-oxoethyl]-2,4-dioxo-1,3-thiazolidin-5-ylidene}methyl)phenoxy]acetamide] displayed an EC50 of 32 µM.
Still for that read-out and setting: then `CC[C@H](CO)Nc1nc(Nc2cccc(Cl)c2)c2ncn(C(C)C)c2n1` [(R)-2-(6-(3-chlorophenylamino)-9-isopropyl-9H-purin-2-ylamino)butan-1-ol], with 9.54 µM.
The compound `O=C(CSc1ccccc1C(=O)NCc1ccccc1)NC1CCCCCCC1` [2-[2-(cyclooctylamino)-2-oxidanylidene-ethyl]sulfanyl-N-(phenylmethyl)benzamide] returned an EC50 of 51.6 µM.
Same read-out and setting: then `CCC(Cc1ccccc1)NC(=O)CN(C)S(=O)(=O)c1ccc2c(c1)c(=O)n(C)c(=O)n2C` (stereo not drawn) [2-[(1,3-dimethyl-2,4-dioxo-6-quinazolinyl)sulfonyl-methylamino]-N-(1-phenylbutan-2-yl)acetamide], with 7.26 µM; and `CSCCC(=O)N1CCCC(CNC(=O)c2ccc(-c3ccccc3)cc2)C1` (stereo not drawn) [MLS000733867], with 7.78 µM; and `Cn1c(SCc2ccccc2Cl)nc2ccccc21` [2-[(2-chlorobenzyl)thio]-1-methyl-1H-benzimidazole], with 260 µM.
Turning to `O=C(NC(=S)Nc1nc(-c2cccc([N+](=O)[O-])c2)cs1)c1ccccc1Cl` [2-chloranyl-N-[[4-(3-nitrophenyl)-1,3-thiazol-2-yl]carbamothioyl]benzamide], a half-maximal effect (EC50) was put at 9.6 µM.
On to `CC(C)NC(=S)NNC1=c2cc(C(C)C)ccc2=NC1=O` [SMR000242097], for which the response was half-maximal at 5.13 µM (EC50).
The same measure, in the same setting: the same measure for `Sc1nnc(Cc2c[nH]c3ccccc23)o1` [5-(1H-indol-3-ylmethyl)-1,3,4-oxadiazole-2(3H)-thione]: 16.1 µM; for `Cc1cccc(Nc2nnc(SCC(=O)c3ccc(Br)s3)s2)c1C` [1-(5-bromanylthiophen-2-yl)-2-[[5-[(2,3-dimethylphenyl)amino]-1,3,4-thiadiazol-2-yl]sulfanyl]ethanone]: 1.41 µM; for `O=C(NN1C(=O)/C(=C/c2nc3ccccc3[nH]2)SC1=S)c1ccccc1` [N-[(5Z)-5-(1H-benzimidazol-2-ylmethylidene)-4-oxidanylidene-2-sulfanylidene-1,3-thiazolidin-3-yl]benzamide]: 0.38 µM.
The same measure, in the same setting: the same measure for `O=C(NC1CCCC1)C(c1ccncc1)N(Cc1ccco1)C(=O)c1ccc(-c2ccccc2)[nH]1` (stereo not drawn) [MLS000718066]: 19.2 µM.
Still for that read-out and setting: the same measure for `O=C(/C=C/c1ccco1)N1CCC(Cc2ccccc2)CC1` [(E)-1-(4-benzylpiperidin-1-yl)-3-(furan-2-yl)prop-2-en-1-one]: 6.56 µM.

Staying with this assay, now noted: inactive by the depositor's call.
`Cc1ccc(Nc2nnc(SCC(=O)c3cc4ccccc4o3)s2)cc1C` [1-(1-benzofuran-2-yl)-2-[[5-(3,4-dimethylanilino)-1,3,4-thiadiazol-2-yl]sulfanyl]ethanone]: the response was half-maximal at 0.0853 µM (EC50).
Same read-out and setting: then `CN(C)CCn1c(=S)[nH]c2ccc(Cl)cc2c1=O` [6-chloro-3-[2-(dimethylamino)ethyl]-2-thioxo-2,3-dihydroquinazolin-4(1H)-one], with 67.2 µM; and `CC(C)c1ccc(C=NNC(=O)c2ccccc2Cl)cc1` [2-chloranyl-N-[(4-propan-2-ylphenyl)methylideneamino]benzamide], with 45.8 µM; and `Cc1ccc(CN(C)C(=O)c2cc(COc3ccc(F)cc3Cl)on2)o1` [5-[(2-chloranyl-4-fluoranyl-phenoxy)methyl]-N-methyl-N-[(5-methylfuran-2-yl)methyl]-1,2-oxazole-3-carboxamide], with 89.2 µM.
As for `Fc1ccccc1CSc1nncn1NC/C=C/c1ccccc1` [3-[(2-fluorophenyl)methylsulfanyl]-N-[(E)-3-phenylprop-2-enyl]-1,2,4-triazol-4-amine], the EC50 is 0.0567 µM.
The same measure, in the same setting: the same measure for `CN(c1ccccc1)c1ccc(/C=C(\CCC(=O)O)c2nc3ccccc3s2)cc1[N+](=O)[O-]`: 8.17 µM; for `COc1ccc(Nc2nnc(SCc3cc(=O)n4ccsc4n3)s2)cc1` [7-[[5-(4-methoxyanilino)-1,3,4-thiadiazol-2-yl]sulfanylmethyl]-[1,3]thiazolo[3,2-a]pyrimidin-5-one]: 8870 µM.
The same measure, in the same setting: then `O=C(NCCCn1ncc2ccccc21)c1cc(COc2c(F)cccc2F)on1` [5-[(2,6-difluorophenoxy)methyl]-N-(3-indazol-1-ylpropyl)-1,2-oxazole-3-carboxamide], with 18.7 µM.
